Legend:
DU-145 = assay: NCI-60 one-dose screen, DU-145; assay type: cell-based; conditions: Homo sapiens; DU-145, prostate cancer; single dose 10 μM; read-out: Growth inhibition %
Method: (§1) Anti-proliferative effects of the counterparts 4a–g and 5a–g were screened against 60 human cancer cell lines, following the Developmental Therapeutics Program protocol, National Cancer Institute[35].
(§2) The anti-tumour activity of the fourteen synthesised congeners was investigated at the NCI against a panel of 60 cancer cell lines (NCI-60 Cell One-Dose Screen). The tested dibenzo[b,f]azepine derivatives were screened at a single dose level (10 μM), Table 1.

K-562 = assay: NCI-60 one-dose screen, K-562; assay type: cell-based; conditions: Homo sapiens, K562; K-562, leukaemia; single dose 10 μM; read-out: Growth inhibition %
Method: as §1, §2

UO-31 = assay: NCI-60 one-dose screen, UO-31; assay type: cell-based; conditions: Homo sapiens; UO-31, renal cancer; single dose 10 μM; read-out: Growth inhibition %
Method: as §1, §2

HS 578 T = assay: NCI-60 one-dose screen, HS 578 T; assay type: cell-based; conditions: Homo sapiens, breast cancer, single dose 10 μM, read-out: Growth inhibition %
Method: as §1, §2

NCI-H23 = assay: NCI-60 one-dose screen, NCI-H23; assay type: cell-based; conditions: Homo sapiens; NCI-H23, non-small cell lung cancer; single dose 10 μM; read-out: Growth inhibition %
Method: as §1, §2

SK-MEL-2 = assay: NCI-60 one-dose screen, SK-MEL-2; assay type: cell-based; conditions: Homo sapiens; SK-MEL-2, melanoma; single dose 10 μM; read-out: Growth inhibition %
Method: as §1, §2

RXF 393 = assay: NCI-60 one-dose screen, RXF 393; assay type: cell-based; conditions: Homo sapiens; RXF 393, renal cancer; single dose 10 μM; read-out: Growth inhibition %
Method: as §1, §2

HCT-15 = assay: NCI-60 one-dose screen, HCT-15; assay type: cell-based; conditions: Homo sapiens; HCT-15, colon cancer; single dose 10 μM; read-out: Growth inhibition %
Method: as §1, §2

CAKI-1 = assay: NCI-60 one-dose screen, CAKI-1; assay type: cell-based; conditions: Homo sapiens; CAKI-1, renal cancer; single dose 10 μM; read-out: Growth inhibition %
Method: as §1, §2

NCI-H522 = assay: NCI-60 one-dose screen, NCI-H522; assay type: cell-based; conditions: Homo sapiens; NCI-H522, non-small cell lung cancer; single dose 10 μM; read-out: Growth inhibition %
Method: as §1, §2

786-0 = assay: NCI-60 one-dose screen, 786-0; assay type: cell-based; conditions: Homo sapiens; 786-0, renal cancer; single dose 10 μM; read-out: Growth inhibition %
Method: as §1, §2

UACC-62 = assay: NCI-60 one-dose screen, UACC-62; assay type: cell-based; conditions: Homo sapiens; UACC-62, melanoma; single dose 10 μM; read-out: Growth inhibition %
Method: as §1, §2

SK-MEL-5 = assay: NCI-60 one-dose screen, SK-MEL-5; assay type: cell-based; conditions: Homo sapiens; SK-MEL-5, melanoma; single dose 10 μM; read-out: Growth inhibition %
Method: as §1, §2

OVCAR-8 = assay: NCI-60 one-dose screen, OVCAR-8; assay type: cell-based; conditions: Homo sapiens; OVCAR-8, ovarian cancer; single dose 10 μM; read-out: Growth inhibition %
Method: as §1, §2

ACHN = assay: NCI-60 one-dose screen, ACHN; assay type: cell-based; conditions: Homo sapiens, renal cancer, single dose 10 μM, read-out: Growth inhibition %
Method: as §1, §2

HCC-2998 = assay: NCI-60 one-dose screen, HCC-2998; assay type: cell-based; conditions: Homo sapiens; HCC-2998, colon cancer; single dose 10 μM; read-out: Growth inhibition %
Method: as §1, §2

TK-10 = assay: NCI-60 one-dose screen, TK-10; assay type: cell-based; conditions: Homo sapiens; TK-10, renal cancer; single dose 10 μM; read-out: Growth inhibition %
Method: as §1, §2

HOP-62 = assay: NCI-60 one-dose screen, HOP-62; assay type: cell-based; conditions: Homo sapiens; HOP-62, non-small cell lung cancer; single dose 10 μM; read-out: Growth inhibition %
Method: as §1, §2

OVCAR-4 = assay: NCI-60 one-dose screen, OVCAR-4; assay type: cell-based; conditions: Homo sapiens; OVCAR-4, ovarian cancer; single dose 10 μM; read-out: Growth inhibition %
Method: as §1, §2

CCRF-CEM = assay: NCI-60 one-dose screen, CCRF-CEM; assay type: cell-based; conditions: Homo sapiens, leukaemia, single dose 10 μM, read-out: Growth inhibition %
Method: as §1, §2

SNB-19 = assay: NCI-60 one-dose screen, SNB-19; assay type: cell-based; conditions: Homo sapiens; SNB-19, CNS cancer; single dose 10 μM; read-out: Growth inhibition %
Method: as §1, §2

IGROV1 = assay: NCI-60 one-dose screen, IGROV1; assay type: cell-based; conditions: Homo sapiens, IGROV-1; IGROV1, ovarian cancer; single dose 10 μM; read-out: Growth inhibition %
Method: as §1, §2

OVCAR-5 = assay: NCI-60 one-dose screen, OVCAR-5; assay type: cell-based; conditions: Homo sapiens; OVCAR-5, ovarian cancer; single dose 10 μM; read-out: Growth inhibition %
Method: as §1, §2

SK-OV-3 = assay: NCI-60 one-dose screen, SK-OV-3; assay type: cell-based; conditions: Homo sapiens; SK-OV-3, ovarian cancer; single dose 10 μM; read-out: Growth inhibition %
Method: as §1, §2

U251 = assay: NCI-60 one-dose screen, U251; assay type: cell-based; conditions: Homo sapiens, U-251; U251, CNS cancer; single dose 10 μM; read-out: Growth inhibition %
Method: as §1, §2

MALME-3M = assay: NCI-60 one-dose screen, MALME-3M; assay type: cell-based; conditions: Homo sapiens, melanoma, single dose 10 μM, read-out: Growth inhibition %
Method: as §1, §2

NCI-H322M = assay: NCI-60 one-dose screen, NCI-H322M; assay type: cell-based; conditions: Homo sapiens, non-small cell lung cancer, single dose 10 μM, read-out: Growth inhibition %
Method: as §1, §2

NCI-H226 = assay: NCI-60 one-dose screen, NCI-H226; assay type: cell-based; conditions: Homo sapiens; NCI-H226, non-small cell lung cancer; single dose 10 μM; read-out: Growth inhibition %
Method: as §1, §2

NCI/ADR-RES = assay: NCI-60 one-dose screen, NCI/ADR-RES; assay type: cell-based; conditions: Homo sapiens, ovarian cancer, single dose 10 μM, read-out: Growth inhibition %
Method: as §1, §2

MDA-MB-435 = assay: NCI-60 one-dose screen, MDA-MB-435; assay type: cell-based; conditions: Homo sapiens; MDA-MB-435, melanoma; single dose 10 μM; read-out: Growth inhibition %
Method: as §1, §2

COLO 205 = assay: NCI-60 one-dose screen, COLO 205; assay type: cell-based; conditions: Homo sapiens; COLO 205, colon cancer; single dose 10 μM; read-out: Growth inhibition %
Method: as §1, §2

MDA-MB-231-ATCC = assay: NCI-60 one-dose screen, MDA-MB-231-ATCC; assay type: cell-based; conditions: Homo sapiens, breast cancer, single dose 10 μM, read-out: Growth inhibition %
Method: as §1, §2

UACC-257 = assay: NCI-60 one-dose screen, UACC-257; assay type: cell-based; conditions: Homo sapiens; UACC-257, melanoma; single dose 10 μM; read-out: Growth inhibition %
Method: as §1, §2

| Structure (SMILES) | inhibition at 10 µM (DU-145) [%] | inhibition at 10 µM (K-562) [%] | inhibition at 10 µM (UO-31) [%] | melting point [°C] | inhibition at 10 µM (HS 578 T) [%] | inhibition at 10 µM (NCI-H23) [%] | inhibition at 10 µM (SK-MEL-2) [%] | inhibition at 10 µM (RXF 393) [%] | inhibition at 10 µM (HCT-15) [%] | inhibition at 10 µM (CAKI-1) [%] | inhibition at 10 µM (NCI-H522) [%] | inhibition at 10 µM (786-0) [%] | inhibition at 10 µM (UACC-62) [%] | inhibition at 10 µM (SK-MEL-5) [%] | inhibition at 10 µM (OVCAR-8) [%] | inhibition at 10 µM (ACHN) [%] | inhibition at 10 µM (HCC-2998) [%] | inhibition at 10 µM (TK-10) [%] | inhibition at 10 µM (HOP-62) [%] | inhibition at 10 µM (OVCAR-4) [%] | further results |
| --- | --- | --- | --- | --- | --- | --- | --- | --- | --- | --- | --- | --- | --- | --- | --- | --- | --- | --- | --- | --- | --- |
| Cc1ccc(C(=O)NNC(=O)N2c3ccccc3C=Cc3ccccc32)cc1 [Compound 4d, N′-(4-Methylbenzoyl)-5H-dibenzo[b,f]azepine-5-carbohydrazide] | < 10 | < 10 | < 10 | 151 to 153 | < 10 | < 10 | < 10 | < 10 | < 10 | < 10 | < 10 | < 10 | < 10 | < 10 | < 10 | < 10 | < 10 | 10.3 | < 10 | < 10 | inhibition at 10 µM (CCRF-CEM): < 10%; inhibition at 10 µM (SNB-19): < 10%; inhibition at 10 µM (IGROV1): < 10%; inhibition at 10 µM (OVCAR-5): < 10%; inhibition at 10 µM (SK-OV-3): < 10%; inhibition at 10 µM (U251): < 10%; inhibition at 10 µM (MALME-3M): < 10%; inhibition at 10 µM (NCI-H322M): < 10%; inhibition at 10 µM (NCI-H226): < 10%; inhibition at 10 µM (NCI/ADR-RES): < 10%; inhibition at 10 µM (MDA-MB-435): < 10%; inhibition at 10 µM (COLO 205): < 10%; inhibition at 10 µM (MDA-MB-231-ATCC): < 10%; inhibition at 10 µM (UACC-257): < 10% |
| O=C(Cc1ccccc1)NNC(=O)N1c2ccccc2C=Cc2ccccc21 [Compound 4g, N′-(2-Phenylacetyl)-5H-dibenzo[b,f]azepine-5-carbohydrazide] | < 10 | < 10 | < 10 | 134 to 136 | < 10 | < 10 | < 10 | < 10 | < 10 | < 10 | < 10 | < 10 | < 10 | < 10 | < 10 | < 10 | < 10 | < 10 | < 10 | < 10 | inhibition at 10 µM (CCRF-CEM): < 10%; inhibition at 10 µM (SNB-19): < 10%; inhibition at 10 µM (IGROV1): < 10%; inhibition at 10 µM (OVCAR-5): < 10%; inhibition at 10 µM (SK-OV-3): < 10%; inhibition at 10 µM (U251): < 10%; inhibition at 10 µM (MALME-3M): < 10%; inhibition at 10 µM (NCI-H322M): < 10%; inhibition at 10 µM (NCI-H226): < 10%; inhibition at 10 µM (NCI/ADR-RES): < 10%; inhibition at 10 µM (MDA-MB-435): < 10%; inhibition at 10 µM (COLO 205): < 10%; inhibition at 10 µM (MDA-MB-231-ATCC): < 10%; inhibition at 10 µM (UACC-257): < 10% |
